Key:
Experiment in all cases: AUC of viability dose-response curve (% viability x log10 dose units); higher = less sensitive
Conditions in all cases: 48 h
P12-Ichikawa = tested on: P12-Ichikawa
Outline: (§1)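 Leukemia cells adapted to each medium (500 or 1000 cells/well, 1536-well plates) were exposed to library compounds in DMSO for 48 h at 37°C at 11 threefold doses, 47 μM to 0.79 nM. Luminescence by CellTiter-Glo One was normalised per plate to DMSO and cell-free wells, then fitted with a four-parameter log-logistic curve on log10 dose. Curves above full viability were scaled and quality-control failures removed before area under the curve was integrated by trapezoidal rule.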

NOMO1 = tested on: NOMO1
Outline: as §1

SEM cells = tested on: SEM cells
Outline: as §1

[1] = RPMI 5 mM glucose + 10% dialyzed FBS

Row | SMILES | AUC of viability dose-response curve (P12-Ichikawa; HPLM + 10% dialyzed FBS) | AUC of viability dose-response curve (P12-Ichikawa; RPMI 5 mM glucose + 10% FBS) | AUC of viability dose-response curve (P12-Ichikawa; [1]) | AUC of viability dose-response curve (NOMO1; HPLM + 10% dialyzed FBS) | AUC of viability dose-response curve (NOMO1; RPMI 5 mM glucose + 10% FBS) | AUC of viability dose-response curve (NOMO1; [1]) | AUC of viability dose-response curve (SEM cells; HPLM + 10% dialyzed FBS) | AUC of viability dose-response curve (SEM cells; RPMI 5 mM glucose + 10% FBS) | AUC of viability dose-response curve (SEM cells; [1])
1 | O=C(O)Cn1nnc(-c2cc(N3CCC(Oc4cc(F)ccc4Br)CC3)no2)n1 | 413 | 415 | 428 | 357 | 340 | 361 | 422 | 464 | 459
2 | COc1ccc([S+](=O)([O-])N(C(C)=O)c2ccccc2/C=C/c2cc[n+]([O-])cc2)cc1 | 353 | 345 | 370 | 351 | 352 | 356 | 352 | 342 | 351
3 | CC1CNc2c(cccc2[S+](=O)([O-])N[C@@H](CCCNC(=N)N)C(=O)N2CC[C@@H](C)C[C@@H]2C(=O)O)C1 (some centres not stated) | 468 | 473 | 472 | 435 | 465 | 465 | 453 | 450 | 462
4 | C[C@@]12C(=O)OC(=O)[C@@]1(C)C1CCC2O1 | 407 | 405 | 407 | 391 | 371 | 392 | 400 | 392 | 377
5 | Cc1cnn(C)c1C(=O)Nc1cc(Nc2ccc3c(/C=C/c4ccccn4)n[nH]c3c2)ccc1F | 424 | 449 | 441 | 422 | 460 | 454 | 343 | 311 | 330
6 | C[C@]12CC[C@@H]3c4ccc(O)cc4CC[C@H]3[C@@H]1[C@@H](O)[C@@H](O)[C@@H]2O | 468 | 457 | 450 | 461 | 471 | 468 | 465 | 448 | 461
7 | C[C@]12CCC(=O)C=C1CC[C@@H]1[C@@H]2[C@@H](O)C[C@@]2(C)[C@H]1CC[C@]2(O)C(=O)CO | 447 | 425 | 412 | 474 | 456 | 458 | 466 | 427 | 443
8 | C[C@H](NC(=O)c1sccc1OCc1ccc(Cl)cc1)c1ccccc1 | 407 | 398 | 407 | 382 | 388 | 394 | 408 | 449 | 450
9 | CNCCCC12CCC(c3ccccc31)c1ccccc12 | 442 | 439 | 428 | 429 | 426 | 411 | 453 | 443 | 469
10 | CC(C)CNc1ccnc(NCc2csc(-c3ccccc3)n2)n1 | 440 | 436 | 442 | 414 | 456 | 446 | 447 | 447 | 458
11 | O=C(C=CC#Cc1cccc(N[S+](=O)([O-])c2ccccc2)c1)NO | 353 | 345 | 346 | 367 | 374 | 371 | 354 | 358 | 352
12 | COc1cc(OC2CCN(C)CC2)ccc1Nc1ncc2c(n1)n(C1CCCC1)c(=O)n2C | 408 | 380 | 363 | 427 | 373 | 393 | 326 | 346 | 324
13 | Cc1c(C)n(Cc2ccc(-c3ccccc3C(=O)O)cc2)c2ccc(C(=O)N[C@@H](C)c3ccc([N+](=O)[O-])cc3)cc12 | 425 | 423 | 422 | 421 | 411 | 417 | 460 | 466 | 470
14 | O=C(Nc1cc(Cl)cc2c1[nH]c1cnccc12)c1cccnc1 | 471 | 461 | 457 | 467 | 477 | 471 | 468 | 452 | 437
15 | CNC(=O)c1ccc2cc(C3(O)CCn4cncc43)ccc2c1 (configuration not stated) | 453 | 469 | 453 | 458 | 456 | 456 | 441 | 450 | 452
16 | C[S+](=O)([O-])Nc1ccc([N+](=O)[O-])cc1Oc1ccccc1 | 461 | 456 | 460 | 452 | 465 | 464 | 467 | 449 | 464
17 | O=C1c2ccccc2-[n+]2ccc3c([nH]c4ccccc43)c21 | 403 | 405 | 407 | 385 | 398 | 390 | 291 | 332 | 311

Row | SMILES | AUC of viability dose-response curve (P12-Ichikawa; HPLM + 10% dialyzed FBS) | AUC of viability dose-response curve (P12-Ichikawa; RPMI 5 mM glucose + 10% FBS) | AUC of viability dose-response curve (P12-Ichikawa; [1]) | AUC of viability dose-response curve (NOMO1; HPLM + 10% dialyzed FBS) | AUC of viability dose-response curve (NOMO1; RPMI 5 mM glucose + 10% FBS) | AUC of viability dose-response curve (NOMO1; [1]) | AUC of viability dose-response curve (SEM cells; HPLM + 10% dialyzed FBS) | AUC of viability dose-response curve (SEM cells; RPMI 5 mM glucose + 10% FBS) | AUC of viability dose-response curve (SEM cells; [1])
18 | CCN1CCN(CC1)CC(=O)NC2=CC=C(C3=C2C4=C(S3)C=CC=C4)C5=C6O\C(=C/C(=O)C6=CC=C5)N7CCOCC7 | 464 | 447 | 453 | 420 | 442 | 432 | 337 | 337 | 338
19 | CC[C@H](NC1=C2N=C[NH]C2=NC=N1)C/3=N/C4=C(C(=CC=C4)F)C(=O)N3C5=CC=CC=C5 | 436 | 395 | 401 | 433 | 450 | 432 | 411 | 430 | 442
20 | CC1(C)O[C@@H]2C[C@H]3[C@@H]4C[C@H](F)C5=CC(=O)C=C[C@]5(C)[C@@]4(F)[C@@H](O)C[C@]3(C)[C@]2(C(=O)CO)O1 | 324 | 303 | 272 | 460 | 460 | 457 | 305 | 314 | 291
21 | CNC(=O)c1ccc(N2C(=S)N(c3cnc(C#N)c(C(F)(F)F)c3)C(=O)C23CCC3)cc1F | 470 | 463 | 467 | 419 | 426 | 439 | 447 | 452 | 457
22 | N[S+]([O-])(=O)C1=C(Cl)C=C2\N=C/N[S+]([O-])(=O)C2=C1 | 459 | 456 | 468 | 465 | 470 | 475 | 380 | 426 | 418
23 | C[C@H]1C[C@@H]2[C@H](CC[C@@]3(C)[C@H]2CC[C@]3(OC(C)=O)C(C)=O)[C@@]\4(C)CCC(=O)\C=C14 | 464 | 446 | 442 | 471 | 472 | 458 | 417 | 433 | 425
24 | CCc1ccc(CCOc2ccc(CC3SC(=O)NC3=O)cc2)nc1 (configuration not stated) | 450 | 473 | 469 | 448 | 442 | 460 | 444 | 402 | 474
25 | COC\1=C(/OC)C(=O)\C(=C(C)/C1=O)CCCCCCCCCCO | 471 | 456 | 459 | 461 | 464 | 468 | 460 | 471 | 456
26 | Clc1ccc(-c2nc3sccn3c2/C=N/OCc2ccc(Cl)c(Cl)c2)cc1 | 448 | 463 | 454 | 445 | 451 | 461 | 453 | 430 | 455
27 | CCC[S+]([O-])c1ccc2[nH]c(NC(=O)OC)nc2c1 (configuration not stated) | 409 | 393 | 405 | 429 | 420 | 384 | 409 | 399 | 411
28 | OC(c1cc(C(F)(F)F)nc2c(C(F)(F)F)cccc12)C1CCCCN1 (configuration not stated) | 468 | 458 | 473 | 447 | 453 | 452 | 455 | 453 | 455
29 | CCN(CC)CCCCNc1ncc2cc(-c3cc(OC)cc(OC)c3)c(NC(=O)NC(C)(C)C)nc2n1 | 449 | 406 | 404 | 388 | 459 | 444 | 400 | 393 | 391
30 | COC(=O)C[C@](O)(CCCC(C)(C)O)C(=O)O[C@@H]1C(OC)=CC23CCCN2CCc2cc4c(cc2[C@H]13)OCO4 (some centres not stated) | 458 | 458 | 458 | 458 | 466 | 466 | 462 | 452 | 471
31 | CC(C)(C)NC(=O)Nc1cccc(Nc2ncc(F)c(NC(C)(C)CO)n2)c1 | 415 | 425 | 429 | 477 | 450 | 459 | 415 | 396 | 397
32 | CC(C)(C)OC(=O)N[C@H]1CCCCC/C=C\[C@@H]2C[C@@]2(C(=O)N[S+](=O)([O-])C2CC2)NC(=O)[C@@H]2C[C@@H](OC(=O)N3Cc4cccc(F)c4C3)CN2C1=O | 468 | 467 | 459 | 457 | 468 | 472 | 401 | 441 | 466
33 | C[C@@H]1COCCN1c1cc(C2([S@+](C)(=N)[O-])CC2)nc(-c2ccnc3[nH]ccc23)n1 | 380 | 381 | 368 | 358 | 390 | 382 | 333 | 335 | 336

Source: the supplement of paper PMC11451515
